Results on eleven molecules are retold here after ChEMBL document CHEMBL1201862, “PubChem BioAssay data set” (2004).

Calls of active or inactive are those of the source.

The target in experiment [1] is T1, fMet-Leu-Phe receptor (Homo sapiens, UniProt P21462).
T1 sequence (P21462 whole entry): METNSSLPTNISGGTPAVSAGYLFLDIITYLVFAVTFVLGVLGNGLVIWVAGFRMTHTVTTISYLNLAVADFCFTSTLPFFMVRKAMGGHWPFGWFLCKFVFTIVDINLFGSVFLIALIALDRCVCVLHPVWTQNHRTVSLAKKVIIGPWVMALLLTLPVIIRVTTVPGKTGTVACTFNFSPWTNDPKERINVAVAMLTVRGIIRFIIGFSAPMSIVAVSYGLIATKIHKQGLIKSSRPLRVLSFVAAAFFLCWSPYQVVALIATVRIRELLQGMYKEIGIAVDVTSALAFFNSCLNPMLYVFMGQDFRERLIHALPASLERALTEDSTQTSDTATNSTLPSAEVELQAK
The experiment can be described thus: formyl peptide receptor binders – dose response (AID 519). It is filed as functional.

Experiment [2] addresses T2, Replicative DNA helicase DnaB (Mycobacterium tuberculosis, UniProt P9WMR3).
T2 sequence (P9WMR3 whole entry): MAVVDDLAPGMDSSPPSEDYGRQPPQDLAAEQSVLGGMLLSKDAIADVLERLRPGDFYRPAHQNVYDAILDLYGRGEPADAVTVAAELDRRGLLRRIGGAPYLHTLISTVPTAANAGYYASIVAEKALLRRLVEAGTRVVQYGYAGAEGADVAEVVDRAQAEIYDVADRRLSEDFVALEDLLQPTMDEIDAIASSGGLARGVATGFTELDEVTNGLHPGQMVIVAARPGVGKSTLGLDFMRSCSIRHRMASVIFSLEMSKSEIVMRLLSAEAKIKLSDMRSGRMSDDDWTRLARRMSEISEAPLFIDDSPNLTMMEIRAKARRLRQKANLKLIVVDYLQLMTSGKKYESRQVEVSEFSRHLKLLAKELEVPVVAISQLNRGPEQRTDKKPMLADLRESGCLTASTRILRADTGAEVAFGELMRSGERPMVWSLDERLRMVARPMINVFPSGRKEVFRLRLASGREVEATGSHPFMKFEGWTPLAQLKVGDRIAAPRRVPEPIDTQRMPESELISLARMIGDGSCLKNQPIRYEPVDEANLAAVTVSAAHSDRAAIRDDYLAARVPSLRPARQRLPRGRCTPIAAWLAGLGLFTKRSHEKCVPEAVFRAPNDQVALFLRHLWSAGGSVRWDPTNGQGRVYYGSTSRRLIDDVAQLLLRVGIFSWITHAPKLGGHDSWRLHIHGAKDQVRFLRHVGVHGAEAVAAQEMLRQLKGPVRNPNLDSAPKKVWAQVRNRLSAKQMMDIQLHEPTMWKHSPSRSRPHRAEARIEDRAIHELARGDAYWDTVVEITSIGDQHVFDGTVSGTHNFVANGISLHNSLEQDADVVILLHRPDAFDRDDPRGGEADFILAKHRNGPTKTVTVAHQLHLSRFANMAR
The experiment can be described thus: DnaB intein splicing inhibitors, dose response, biochemical, cell-free fluorescence (AID 449749). It is filed as functional.

Experiment [3] concerns the target T3, Protein RecA (Mycobacterium tuberculosis, UniProt P9WHJ3).
T3 sequence (P9WHJ3 whole entry): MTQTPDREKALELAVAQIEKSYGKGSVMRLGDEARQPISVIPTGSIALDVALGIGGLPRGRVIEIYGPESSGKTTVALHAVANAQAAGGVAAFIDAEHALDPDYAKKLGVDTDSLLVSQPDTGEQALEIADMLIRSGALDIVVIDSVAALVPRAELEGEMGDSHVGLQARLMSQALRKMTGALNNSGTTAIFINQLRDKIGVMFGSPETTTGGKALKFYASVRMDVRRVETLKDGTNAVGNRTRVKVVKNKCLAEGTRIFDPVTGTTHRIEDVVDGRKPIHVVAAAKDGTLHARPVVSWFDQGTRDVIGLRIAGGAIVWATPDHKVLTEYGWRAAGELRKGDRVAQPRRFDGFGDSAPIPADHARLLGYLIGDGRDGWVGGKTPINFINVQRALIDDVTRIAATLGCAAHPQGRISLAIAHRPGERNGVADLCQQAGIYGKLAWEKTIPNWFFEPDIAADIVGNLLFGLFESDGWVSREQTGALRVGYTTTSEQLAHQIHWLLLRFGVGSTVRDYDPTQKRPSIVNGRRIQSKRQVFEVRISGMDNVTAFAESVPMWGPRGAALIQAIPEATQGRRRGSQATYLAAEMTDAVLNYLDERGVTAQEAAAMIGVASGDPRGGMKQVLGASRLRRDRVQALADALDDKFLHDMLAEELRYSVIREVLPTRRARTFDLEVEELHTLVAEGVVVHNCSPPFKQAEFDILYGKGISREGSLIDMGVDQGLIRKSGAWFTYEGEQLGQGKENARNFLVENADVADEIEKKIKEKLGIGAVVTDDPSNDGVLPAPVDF
The experiment can be described thus: Fluorescence Cell-Free Homogeneous Dose Retest to Identify Inhibitors of RecA-Intein Splicing Activity. [Related pubchem assays (depositor defined):AID2097, AID2223, AID489010, AID492950]. It is filed as functional.

Experiment [4] addresses T4, Fructose-bisphosphate aldolase (Mycobacterium tuberculosis, UniProt P9WQA3).
T4 sequence (P9WQA3 whole entry): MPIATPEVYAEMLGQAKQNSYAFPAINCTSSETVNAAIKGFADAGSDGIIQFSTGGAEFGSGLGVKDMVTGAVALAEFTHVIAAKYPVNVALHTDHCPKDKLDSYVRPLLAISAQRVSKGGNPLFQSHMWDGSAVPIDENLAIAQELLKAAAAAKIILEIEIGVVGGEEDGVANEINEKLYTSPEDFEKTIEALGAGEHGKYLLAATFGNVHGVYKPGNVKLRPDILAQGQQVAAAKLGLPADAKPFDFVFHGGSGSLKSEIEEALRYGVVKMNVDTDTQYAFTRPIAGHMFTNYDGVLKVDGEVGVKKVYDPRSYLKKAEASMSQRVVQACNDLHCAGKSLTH
Kind of experiment: Fluorescence-based biochemical high throughput dose response assay for inhibitors of the fructose-bisphosphate aldolase (FBA) of M. tuberculosis. It is filed as functional.

A short description of experiment [5]: CellTiter-Glo luminescence survival assay, SW480 colon tumor line, concentration-response curve, half-maximal inhibitory concentration (AID 1117338). It is filed as functional.
Experiment [6] in a line: RKO cell viability reduction, dose response, CellTiter-Glo luminescence (AID 1117322). It is filed as functional.
Experiment [7] in a line: cytotoxicity toward HCT116 cells – cell-based, CellTiter-Glo luminescence, IC50, dose response (AID 1117332). It is filed as functional. Particulars: HCT-116.
A short description of experiment [8]: SNU-C1 cell viability reduction, dose response, CellTiter-Glo luminescence (AID 1117323). It is filed as functional, cell-based.
Experiment [9] in a line: cytotoxicity toward Colo320 cells – cell-based, CellTiter-Glo luminescence, IC50, dose response (AID 1117334). It is filed as functional. Particulars: COLO 320.
A short description of experiment [10]: cytotoxicity toward HT-29 cells – cell-based, CellTiter-Glo luminescence, IC50, dose response (AID 1117330). It is filed as functional.
Experiment [11] can be described thus: Reduced DLD-1 viability, concentration-response, CellTiter-Glo luminescence (AID 1117352). It is filed as functional.
A short description of experiment [12]: HCT116 cell viability decrease, GSK3B pretreatment – CellTiter-Glo, IC50, dose response (AID 1117339). It is filed as functional. Particulars: HCT-116.
The nature of experiment [13]: NIH-3T3 fibroblast cytotoxicity, dose response, cytotoxicity control, cell-based, fluorescence, Alamar Blue, secondary assay (AID 2327).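 Note: NIH-3T3 mouse fibroblasts cultured with fluconazole at 8 µg/mL.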 It is filed as functional.
Experiment [14] in a line: fluconazole-exposed Candida albicans growth modulators – fluorescence, retest, confirmation (AID 2467). It is filed as functional, cell-based.
The target in experiment [15] is T5, Mannose-6-phosphate isomerase (Homo sapiens, UniProt P34949).
T5 sequence (P34949 whole entry): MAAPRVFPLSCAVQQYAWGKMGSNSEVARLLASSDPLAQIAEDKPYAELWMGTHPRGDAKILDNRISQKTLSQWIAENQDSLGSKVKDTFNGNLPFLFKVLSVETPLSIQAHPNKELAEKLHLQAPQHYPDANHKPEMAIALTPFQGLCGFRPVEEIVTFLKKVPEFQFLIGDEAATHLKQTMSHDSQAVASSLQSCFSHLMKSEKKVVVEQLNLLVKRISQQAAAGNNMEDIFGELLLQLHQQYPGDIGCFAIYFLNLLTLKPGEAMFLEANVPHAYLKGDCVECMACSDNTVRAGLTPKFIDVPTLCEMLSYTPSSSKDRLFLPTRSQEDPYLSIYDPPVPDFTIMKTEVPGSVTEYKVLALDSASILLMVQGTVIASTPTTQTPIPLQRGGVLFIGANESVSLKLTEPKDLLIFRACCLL
The experiment can be described thus: MPI enzyme activity inhibition – biochemical, fluorescence intensity, coupled assay, primary screen (AID 1209).

For experiment [16], the target named is Nonstructural protein 1 (Influenza A virus, UniProt Q194T2). It is filed as functional, Influenza A virus (A/California/07/2009(H1N1)).
A short description of experiment [17]: potency of ADAM10 substrate cleavage blockers – biochemical, QFRET, dose response (AID 743254).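 Note: ADAM10 enzyme with the DM2 quenched FRET peptide as substrate; EDANS fluorescence gain as the protease cuts the substrate; inhibitor potency against ADAM10 proteolytic activity.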
Experiment [18] addresses T6, Disintegrin and metalloproteinase domain-containing protein 17 (Homo sapiens, UniProt P78536). Kind of experiment: inhibition of ADAM17 substrate cleavage – biochemical, quenched FRET substrate, counter-screen for ADAM10 exosite inhibitor project, dose response (AID 743253).
The nature of experiment [19]: cells. It is filed as functional, cell-based.
The nature of experiment [20]: cells. It is filed as functional, cell-based. This is another data set of the same source.
Experiment [21] addresses 26S proteasome non-ATPase regulatory subunit 14 (Homo sapiens, UniProt O00487). The experiment can be described thus: inhibition of proteasome subunit RPN11 – biochemical, fluorescence polarization, uHTS hits, confirmation (AID 602368). It is filed as functional.
For experiment [22], the target named is 72 kDa type IV collagenase (Homo sapiens, UniProt P08253). The experiment can be described thus: Dose Response validation of uHTS RPN11 inhibitor hits using a MMP-2 Fluorescence assay. It is filed as functional.
Experiment [23] concerns the target Prothrombin (Bos taurus, UniProt P00735). The experiment can be described thus: thrombin protease inhibitors – biochemical, fluorescence polarization, uHTS hits, dose response (AID 602369). It is filed as functional.
Experiment [24] deals with T6, Disintegrin and metalloproteinase domain-containing protein 17. The experiment can be described thus: exosite inhibitors of ADAM17, dose response, biochemical (AID 743260).
Experiment [25] can be described thus: rise of 2N DNA cells, HeLa – IC50, dose response (AID 1117349). It is filed as functional, cell-based.
Experiment [26] is described as follows: rise of 4N DNA cells, HeLa – IC50, dose response (AID 1117351). It is filed as functional, cell-based.
For experiment [27], the target named is T5, Mannose-6-phosphate isomerase. The experiment can be described thus: MPI inhibition at elevated mannose 6-phosphate – biochemical, fluorescence intensity, high mannose 6-phosphate, primary screen (AID 1220).

T6 sequence (P78536 whole entry, the tested form may be a part): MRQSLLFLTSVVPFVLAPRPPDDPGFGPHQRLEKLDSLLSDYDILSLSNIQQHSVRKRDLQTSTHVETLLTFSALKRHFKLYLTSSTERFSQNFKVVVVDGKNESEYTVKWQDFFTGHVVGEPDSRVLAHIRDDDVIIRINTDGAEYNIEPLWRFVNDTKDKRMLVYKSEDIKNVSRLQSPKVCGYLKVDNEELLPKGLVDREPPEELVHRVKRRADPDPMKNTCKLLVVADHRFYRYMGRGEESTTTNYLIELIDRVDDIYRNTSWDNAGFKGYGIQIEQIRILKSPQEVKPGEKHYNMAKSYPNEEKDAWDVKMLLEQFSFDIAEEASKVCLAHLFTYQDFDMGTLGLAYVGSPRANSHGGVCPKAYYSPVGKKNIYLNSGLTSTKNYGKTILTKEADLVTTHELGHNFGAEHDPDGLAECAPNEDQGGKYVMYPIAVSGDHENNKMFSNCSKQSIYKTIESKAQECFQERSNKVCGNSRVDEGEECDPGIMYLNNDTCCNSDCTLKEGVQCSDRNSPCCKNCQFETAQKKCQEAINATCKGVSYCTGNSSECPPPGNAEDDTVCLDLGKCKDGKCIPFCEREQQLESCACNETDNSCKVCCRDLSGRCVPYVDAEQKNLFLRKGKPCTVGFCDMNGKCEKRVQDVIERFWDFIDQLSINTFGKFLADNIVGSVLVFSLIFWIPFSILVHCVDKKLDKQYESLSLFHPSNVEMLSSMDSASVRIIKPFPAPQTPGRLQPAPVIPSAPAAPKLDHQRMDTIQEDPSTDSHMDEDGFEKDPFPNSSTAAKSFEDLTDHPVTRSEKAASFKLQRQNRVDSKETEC
72 kDa type IV collagenase, sequence (P08253 whole entry): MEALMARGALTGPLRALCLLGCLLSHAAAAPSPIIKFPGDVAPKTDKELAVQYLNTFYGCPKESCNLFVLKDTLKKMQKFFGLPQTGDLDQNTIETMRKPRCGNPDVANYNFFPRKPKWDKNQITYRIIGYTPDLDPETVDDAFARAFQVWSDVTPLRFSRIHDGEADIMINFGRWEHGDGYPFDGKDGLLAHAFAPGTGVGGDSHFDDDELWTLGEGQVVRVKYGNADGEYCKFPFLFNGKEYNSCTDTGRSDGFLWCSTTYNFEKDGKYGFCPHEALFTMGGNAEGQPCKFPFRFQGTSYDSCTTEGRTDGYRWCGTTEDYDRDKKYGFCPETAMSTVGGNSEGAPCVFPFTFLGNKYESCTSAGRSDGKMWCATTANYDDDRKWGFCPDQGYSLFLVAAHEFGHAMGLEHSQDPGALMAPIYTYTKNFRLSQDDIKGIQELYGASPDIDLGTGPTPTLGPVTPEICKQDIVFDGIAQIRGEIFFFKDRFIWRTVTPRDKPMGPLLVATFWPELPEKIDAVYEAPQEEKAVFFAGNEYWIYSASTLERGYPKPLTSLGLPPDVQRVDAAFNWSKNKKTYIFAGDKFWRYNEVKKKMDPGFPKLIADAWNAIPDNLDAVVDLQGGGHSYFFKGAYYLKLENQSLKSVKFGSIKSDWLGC
26S proteasome non-ATPase regulatory subunit 14, sequence (O00487 whole entry): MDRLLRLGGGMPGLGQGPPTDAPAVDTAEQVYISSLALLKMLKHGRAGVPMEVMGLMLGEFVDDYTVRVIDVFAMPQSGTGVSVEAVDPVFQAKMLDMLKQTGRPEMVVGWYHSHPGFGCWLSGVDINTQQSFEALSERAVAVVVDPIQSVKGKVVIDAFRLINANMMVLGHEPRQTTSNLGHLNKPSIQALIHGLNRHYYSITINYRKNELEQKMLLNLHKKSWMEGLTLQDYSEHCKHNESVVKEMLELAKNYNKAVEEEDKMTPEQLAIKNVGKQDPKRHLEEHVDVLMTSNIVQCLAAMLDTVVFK
Nonstructural protein 1, sequence (Q194T2 whole entry): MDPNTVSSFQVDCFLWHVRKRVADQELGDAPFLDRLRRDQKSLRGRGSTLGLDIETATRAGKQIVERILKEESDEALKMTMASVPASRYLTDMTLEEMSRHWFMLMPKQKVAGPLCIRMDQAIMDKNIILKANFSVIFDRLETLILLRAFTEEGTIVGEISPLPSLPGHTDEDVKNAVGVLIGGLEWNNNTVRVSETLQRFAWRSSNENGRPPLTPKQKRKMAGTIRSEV

As for `CCCOc1ccc2c(=O)c(N3C(=O)c4ccccc4C3=O)c(C)oc2c1`, the Ki in [1] was > 66.7 µM (inactive).
In the case of `COc1ccccc1-c1c(C)oc2cc(OC(=O)c3ccco3)ccc2c1=O`, the AC50 in experiment [2] was 21.8 µM (active). The EC50 in experiment [3] was 23.8 µM (active). In addition, the IC50 in [4] was 1.55 µM (active). Also, the inhibition constant Ki in experiment [1] was 9 µM (active).
With `CCCCCCCCOC(=O)c1ccccc1C(=O)OCCCCCCCC`, the IC50 in experiment [5], in [6], in experiment [7], in experiment [8], in experiment [9] and in experiment [10] was > 20 µM (inactive) throughout. Moreover, the IC50 in experiment [11] and in [12] was > 20 µM (inactive) in each case.
For the molecule `OCCN1CCN(Cc2cc(Cl)c3cccnc3c2O)CC1`, the EC50 in [13] was 121 µM (active); in experiment [14], > 38 µM (not active). For the same molecule, the IC50 is 4.09 µM (active) in experiment [15] and 3.93 µM (active) in experiment [16].
In the case of `COC(=O)c1ccc(C2C(C(=O)c3ccc(OC)cc3)=C(O)C(=O)N2Cc2ccco2)cc1` (centres undefined), the Ki in experiment [1] was 43 µM (inactive).
As for `C=CC[C@@H](CC(=O)N(CCO)Cc1ccccc1)C(=O)N[C@H](COC(=O)[C@@H](CC=C)Cc1ccc(F)cc1)Cc1c[nH]c2ccccc12`, the IC50 in experiment [17] and in [18] was > 69.5 µM (inactive) in each case.
For the molecule `COCC/N=c1\scc(-c2cc(OC)c(OC)c(OC)c2)n1/N=C/c1c(C)[nH]c2ccccc12`, the half-maximal effective concentration (EC50) in [19] and in experiment [20] was > 350 µM (not active) throughout. For the same molecule, the IC50 is 76.9 µM (active) in [21]; > 100 µM (inactive) in [22]; 57.9 µM (active) in [23]; > 69.5 µM (inactive) in experiment [17]; > 69.5 µM (inactive) in experiment [24]; > 69.5 µM (inactive) in experiment [18].
As to `O[C@@H](CNC[C@H](O)[C@H]1CCc2cc(F)ccc2O1)[C@@H]1CCc2cc(F)ccc2O1`, the IC50 was > 10 µM (inactive) in [25]; 3.6 µM (active) in [5]; 3.28 µM (active) in experiment [6]; 6.48 µM (inactive) in [7]; 5.09 µM (inactive) in experiment [8]; > 20 µM (inactive) in experiment [9]. The IC50 in experiment [26] was > 10 µM (inactive); in experiment [10], 4.5 µM (active); in experiment [11], 15.3 µM (inactive); in [12] it was 2.4 µM (active).
In the case of `CCc1ccc(/C=c2\s/c(=C\C(=O)C(C)(C)C)[nH]c2=O)cc1`, the IC50 in [17] and in experiment [18] was > 69.5 µM (inactive) each time.
For the molecule `CCOc1ccc(/C=N/c2cccc3ncccc23)cc1`, the 50% inhibitory concentration (IC50) in [15] and in experiment [27] was > 50 µM (not active) in each case.
Turning to `Cc1ccccc1C(=O)Nc1ccc(C(=O)N2CCCC(N(C)C)c3ccccc32)cc1` (centres undefined) [MOZAVAPTAN], the IC50 in experiment [25] and in experiment [26] was > 10 µM (inactive) each time.
